Test results reported in patent US12552752B2, “Atropisomers of pyridazinone derivatives as herbicides” (FMC Corporation, priority 2020, dated 2026).

Experiments:
Type in all cases: in vivo
[1] = tested on: barnyardgrass (BYG, Echinochloa crus-galli); test: Test A preemergence, barnyardgrass; settings: PRE, 0 to 100 scale, approximately 10 d
Description: (§1) Seeds of plant species selected from barnyardgrass (BYG, Echinochloa crus-galli), kochia (KOC, Kochia scoparia), ragweed (common ragweed, Ambrosia elatior), ryegrass, Italian (RGI, Lolium multiflorum), foxtail, giant (FTI, Setaria faberii), foxtail, green (Setaria viridis) and pigweed (PWR, Amaranthus retroflexus) were planted into a blend of loam soil and sand and treated preemergence with a directed soil spray using test chemicals formulated in a non-phytotoxic solvent mixture which included a surfactant. At the same time, plants selected from these weed species and also wheat (WWT, Triticum aestivum), corn (CPI, Zea mays), blackgrass (BKG, Alopecurus myosuroides) and galium (GAL, catchweed bedstraw, Galium aparine) were planted in pots containing the same blend of loam soil and sand and treated with postemergence applications of test chemicals formulated in the same manner Plants ranged in height from 2 to 10 cm and were in the one- to two-leaf stage for the postemergence treatment. Treated plants and untreated controls were maintained in a greenhouse for approximately 10 d, after which time all treated plants were compared to untreated controls and visually evaluated for injury. Plant response ratings, summarized in Tables 1-4, are based on a 0 to 100 scale where 0 is no effect and 100 is complete control. A dash (−) response means no test result. The ratings are followed by a letter representing the symptomology where S is Albinism, C is Chlorosis, G is Growth Inhibition and E is Emergence.

[2] = tested on: ragweed (common ragweed, Ambrosia elatior); test: Test A postemergence, ragweed; settings: POST, 0 to 100 scale, approximately 10 d
Description: as §1

[3] = tested on: ryegrass, Italian (RGI, Lolium multiflorum); test: Test A preemergence, Italian ryegrass; settings: PRE, 0 to 100 scale, approximately 10 d
Description: as §1

[4] = tested on: foxtail, giant (FTI, Setaria faberii); test: Test A postemergence, giant foxtail; settings: POST, 0 to 100 scale, approximately 10 d
Description: as §1

[5] = tested on: pigweed (PWR, Amaranthus retroflexus); test: Test A postemergence, pigweed; settings: POST, 0 to 100 scale, approximately 10 d
Description: as §1

[6] = tested on: galium (GAL, catchweed bedstraw, Galium aparine); test: Test A postemergence, galium; settings: POST, 0 to 100 scale, approximately 10 d
Description: as §1

[7] = tested on: kochia (KOC, Kochia scoparia); test: Test A postemergence, kochia; settings: POST, 0 to 100 scale, approximately 10 d
Description: as §1

[8] = tested on: wheat (WWT, Triticum aestivum); test: Test A postemergence, wheat; settings: POST, 0 to 100 scale, approximately 10 d
Description: as §1

[9] = tested on: kochia (KOC, Kochia scoparia); test: Test A preemergence, kochia; settings: PRE, 0 to 100 scale, approximately 10 d
Description: as §1

[10] = tested on: pigweed (PWR, Amaranthus retroflexus); test: Test A preemergence, pigweed; settings: PRE, 0 to 100 scale, approximately 10 d
Description: as §1

[11] = tested on: ryegrass, Italian (RGI, Lolium multiflorum); test: Test A postemergence, Italian ryegrass; settings: POST, 0 to 100 scale, approximately 10 d
Description: as §1

[12] = tested on: blackgrass (BKG, Alopecurus myosuroides); test: Test A postemergence, blackgrass; settings: POST, 0 to 100 scale, approximately 10 d
Description: as §1

[13] = tested on: barnyardgrass (BYG, Echinochloa crus-galli); test: Test A postemergence, barnyardgrass; settings: POST, 0 to 100 scale, approximately 10 d
Description: as §1

[14] = tested on: foxtail, giant (FTI, Setaria faberii); test: Test A preemergence, giant foxtail; settings: PRE, 0 to 100 scale, approximately 10 d
Description: as §1

corn (CPI, Zea mays) = test: Test A postemergence, corn; settings: POST, 0 to 100 scale, approximately 10 d
Description: as §1

[15] = 125 g ai/ha, listed as drawing 27
[16] = 31 g ai/ha, listed as drawing 27
[17] = 31 g ai/ha, listed as drawing 28
[18] = 125 g ai/ha, listed as drawing 28
[19] = 31 g ai/ha, listed as drawing 29
[20] = 125 g ai/ha, listed as drawing 29
[21] = 31 g ai/ha, listed as drawing 30
[22] = 125 g ai/ha, listed as drawing 30
[23] = 31 g ai/ha, listed as drawing 26
[24] = 125 g ai/ha, listed as drawing 26

With `Cc1ccc2ccccc2c1-c1c(O)c(Cl)nn(C)c1=O` (racemic) [3 (Enantiomer 3A)] the “Plant response rating BYG” value [1, 15] was 50 S, the “Plant response rating RWC” value [2, 15] was 100 C and the “Plant response rating RGI” value [3, 16] was 10 S. The “Plant response rating FTI” value [4, 16] was 20 S, the “Plant response rating PWR” value ([5]; 125 g ai/ha) was 100 C and the “Plant response rating GAL” value [6, 15] was 100 C. The “Plant response rating KOC” value ([7]; 125 g ai/ha) was 90 S and the “Plant response rating WWT” value ([8]; 31 g ai/ha) was 0.
In the case of `Cc1ccc2ccccc2c1-c1c(O)c(Cl)nn(C)c1=O` (racemic) [3 (Enantiomer 3B)], the “Plant response rating BYG” value [1, 17] is reported as 80 S, the “Plant response rating BYG” value ([1]; 1000 g ai/ha) is reported as 100 C and the “Plant response rating KOC” value [9, 17] is reported as 10 S. The “Plant response rating KOC” value ([9]; 1000 g ai/ha) was 100 C, the “Plant response rating RWC” value [2, 17] was 100 C and the “Plant response rating RWC” value ([2]; 1000 g ai/ha) was 90 S. The “Plant response rating RGI” value ([3]; 1000 g ai/ha) was 100 S, the “Plant response rating PWR” value [10, 17] was 90 C and the “Plant response rating PWR” value ([10]; 1000 g ai/ha) was 100 C. The “Plant response rating FTI” value [4, 18] was 90 S, the “Plant response rating FTI” value ([4]; 1000 g ai/ha) was 100 S and the “Plant response rating PWR” value [5, 17] was 100 C. The “Plant response rating PWR” value ([5]; 1000 g ai/ha) was 100 C, the “Plant response rating RGI” value [11, 18] was 100 S and the “Plant response rating RGI” value ([11]; 1000 g ai/ha) was 100 S. The “Plant response rating BKG” value [12, 17] was 0, the “Plant response rating BKG” value ([12]; 1000 g ai/ha) was 80 S and the “Plant response rating GAL” value [6, 17] was 100 C 100 C 100 C 100 C 100 C. The “Plant response rating GAL” value [6, 18] was 100 C 100 C 100 C 100 C 100 C, the “Plant response rating GAL” value ([6]; 1000 g ai/ha) was 100 C 100 C 100 C 100 C 100 C and the “Plant response rating BYG” value ([13]; 1000 g ai/ha) was 90 S. The “Plant response rating KOC” value ([7]; 1000 g ai/ha) was 100 C, the “Plant response rating FTI” value [14, 18] was 100 C and the “Plant response rating FTI” value ([14]; 1000 g ai/ha) was 100 C. The “Plant response rating WWT” value [8, 18] was 30 S, the “Plant response rating WWT” value ([8]; 1000 g ai/ha) was 90 S and the “Plant response rating CPI” value (corn (CPI, Zea mays); 1000 g ai/ha) was 50 S.
With `CCC(=O)Oc1c(Cl)nn(C)c(=O)c1-c1c(C)ccc2ccc(C)cc12` (racemic) [4 (Enantiomer 4A)] the “Plant response rating BYG” value [1, 19] was 0, the “Plant response rating BYG” value [1, 20] was 0 and the “Plant response rating KOC” value ([9]; 31 g ai/ha) was 10 C. The “Plant response rating KOC” value [9, 20] was 50 S, the “Plant response rating RWC” value [2, 19] was 80 S and the “Plant response rating RWC” value [2, 20] was 90 S. The “Plant response rating RGI” value [3, 19] was 0, the “Plant response rating RGI” value [3, 20] was 10 C and the “Plant response rating PWR” value [10, 19] was 90 C. For the same compound, the “Plant response rating PWR” value [10, 20] was 90 C, the “Plant response rating FTI” value [4, 19] was 0 and the “Plant response rating FTI” value [4, 20] was 30 S. For the same compound, the “Plant response rating PWR” value [5, 19] was 90 S, the “Plant response rating PWR” value [5, 20] was 100 C and the “Plant response rating RGI” value [11, 19] was 10 C. The “Plant response rating RGI” value [11, 20] was 20 C, the “Plant response rating BKG” value [12, 19] was 10 C 10 C and the “Plant response rating BKG” value [12, 20] was 10 C 10 C. The “Plant response rating GAL” value [6, 19] was 80 S, the “Plant response rating GAL” value [6, 20] was 100 C and the “Plant response rating BYG” value [13, 19] was 0. The “Plant response rating BYG” value [13, 20] was 30 C, the “Plant response rating KOC” value ([7]; 31 g ai/ha) was 50 S and the “Plant response rating KOC” value [7, 20] was 60 S. The “Plant response rating FTI” value [14, 19] was 0, the “Plant response rating FTI” value [14, 20] was 10 S and the “Plant response rating WWT” value [8, 19] was 0. For the same compound, the “Plant response rating WWT” value [8, 20] was 0, the “Plant response rating CPI” value (corn (CPI, Zea mays); [19]) was 0 and the “Plant response rating CPI” value (corn (CPI, Zea mays); [20]) was 0.
`CCC(=O)Oc1c(Cl)nn(C)c(=O)c1-c1c(C)ccc2ccc(C)cc12` (racemic) [4 (Enantiomer 4B)] was tested, and the “Plant response rating BYG” value [1, 21] was 100 C, the “Plant response rating BYG” value [1, 22] was 100 C and the “Plant response rating KOC” value [9, 22] was 70 S. For the same compound, the “Plant response rating RWC” value [2, 21] was 90 S, the “Plant response rating RWC” value [2, 22] was 100 C and the “Plant response rating RGI” value [3, 21] was 80 S. For the same compound, the “Plant response rating RGI” value [3, 22] was 90 S, the “Plant response rating PWR” value [10, 21] was 100 C 100 C 100 C 100 C and the “Plant response rating PWR” value [10, 22] was 100 C 100 C 100 C 100 C. The “Plant response rating FTI” value [4, 21] was 80 S, the “Plant response rating FTI” value [4, 22] was 90 S and the “Plant response rating PWR” value [5, 21] was 100 C 100 C 100 C 100 C. For the same compound, the “Plant response rating PWR” value [5, 22] was 100 C 100 C 100 C 100 C, the “Plant response rating RGI” value [11, 21] was 80 C and the “Plant response rating RGI” value [11, 22] was 90 C. The “Plant response rating BKG” value [12, 21] was 20 S, the “Plant response rating BKG” value [12, 22] was 70 S and the “Plant response rating GAL” value [6, 21] was 100 C 100 C. The “Plant response rating GAL” value [6, 22] was 100 C 100 C, the “Plant response rating BYG” value [13, 21] was 70 S and the “Plant response rating BYG” value [13, 22] was 90 S. For the same compound, the “Plant response rating KOC” value [7, 22] was 50 S, the “Plant response rating FTI” value [14, 21] was 100 C and the “Plant response rating FTI” value [14, 22] was 100 C. The “Plant response rating WWT” value [8, 21] was 0, the “Plant response rating WWT” value [8, 22] was 20 S and the “Plant response rating CPI” value (corn (CPI, Zea mays); [21]) was 10 G. For the same compound, the “Plant response rating CPI” value (corn (CPI, Zea mays); [22]) was 10 S.
With `Cc1ccc2ccc(C)c(-c3c(O)c(Cl)nn(C)c3=O)c2c1` (single isomer, unassigned) [2 (Enantiomer 2B)] the “Plant response rating BYG” value [1, 23] was 90 S, the “Plant response rating BYG” value [1, 24] was 100 C and the “Plant response rating KOC” value [9, 23] was 0. The “Plant response rating KOC” value [9, 24] was 90 C, the “Plant response rating RWC” value [2, 23] was 100 C 100 C and the “Plant response rating RWC” value [2, 24] was 100 C 100 C. The “Plant response rating RGI” value [3, 23] was 80 S, the “Plant response rating RGI” value [3, 24] was 100 S and the “Plant response rating FTI” value [4, 23] was 80 S. For the same compound, the “Plant response rating FTI” value [4, 24] was 90 S, the “Plant response rating PWR” value ([5]; 125 g ai/ha) was 100 C 100 C 100 C 100 C and the “Plant response rating RGI” value [11, 23] was 100 C. The “Plant response rating RGI” value [11, 24] was 100 C, the “Plant response rating BKG” value [12, 23] was 30 C and the “Plant response rating BKG” value [12, 24] was 40 S. For the same compound, the “Plant response rating GAL” value [6, 23] was 100 C, the “Plant response rating GAL” value [6, 24] was 90 C and the “Plant response rating BYG” value [13, 23] was 80 C. For the same compound, the “Plant response rating BYG” value [13, 24] was 90 C, the “Plant response rating KOC” value ([7]; 31 g ai/ha) was 60 S and the “Plant response rating KOC” value [7, 24] was 70 S. The “Plant response rating FTI” value [14, 23] was 100 C, the “Plant response rating FTI” value [14, 24] was 100 C and the “Plant response rating WWT” value [8, 23] was 0. The “Plant response rating WWT” value [8, 24] was 30 S, the “Plant response rating CPI” value (corn (CPI, Zea mays); [23]) was 0 and the “Plant response rating CPI” value (corn (CPI, Zea mays); 125 g ai/ha) was 30 G.
